Measured values as given in US11696914B1 (priority 2019, dated 2023).
Values joined by “and” are separate entries in the source; they are usually repeats but may differ in a detail not shown here. Equal values may be shown once. Read-outs that look alike come from different tables or passages of the source.

Key:
[1] = microsomes; for t1/2: monkey
[2] = system: Marburg virus/H.sapiens-tc/AGO/2005/Ang-1379v (MARV/Ang); assay: organism not typed; assay type: cell-based; settings: HeLa
in vitro [3] = settings: African green monkey
[4] = guinea pig, pH 7.4
[5] = mouse, microsomes
[6] = system: Venezuelian equine encephalitis virus; assay: microbe, parasite or virus in culture; assay type: cell-based; settings: Venezuelan equine encephalitis virus, Vero 76
SARS-CoV-2 = assay: microbe, parasite or virus in culture; assay type: cell-based
Ebola virus = assay: microbe, parasite or virus in culture; assay type: cell-based; settings: Zaire ebolavirus, Vero 76
in vitro [7] = settings: human
[8] = system: Marburg virus (MARV), Musoke strain; assay: organism not typed; assay type: cell-based; settings: HeLa; n=6; read-out: IC50 ± SEM versus MARV Musoke strain
[9] = system: Marburg virus/H.sapiens-tc/KEN/1980/Mt. Elgon-Musoke (MARV/Mus); assay: organism not typed; assay type: cell-based; settings: HeLa
[10] = system: Ebola virus/H.sapiens-tc/GIN/2014/Makona-005 (EBOV/Mak); assay: microbe, parasite or virus in culture; assay type: cell-based; settings: Zaire ebolavirus, HeLa
[11] = guinea pig, microsomes
HeLa cells = settings: human
SARS-CoV-2 Spike RBD = SARS-CoV-2 Spike RBD (Severe acute respiratory syndrome coronavirus 2, UniProt P0DTC2); assay type: binding
[12] = system: Vesicular Stomatitis Virus (VSV) pseudotyped with EBOV glycoprotein; assay: microbe, parasite or virus in culture; assay type: cell-based, Ebola virus; settings: HeLa, read-out: IC50, inhibition of EBOV-VSV pseudovirus entry
[13] = human, microsomes
[14] = human, microsomes, 1 h, pH 7.4
[15] = system: Ebola virus/H.sapiens-tc/COD/1976/Yambuku-Mayinga (EBOV/May); assay: microbe, parasite or virus in culture; assay type: cell-based; settings: Zaire ebolavirus, HeLa
Chikungunya virus = assay: microbe, parasite or virus in culture; assay type: cell-based; settings: Vero 76
EBOV Zaire = assay: microbe, parasite or virus in culture; assay type: cell-based, Ebola virus; settings: Zaire ebolavirus, HeLa
[16] = mouse, microsomes, 1 h, pH 7.4
[17] = system: murine hepatitis virus (MHV); assay: microbe, parasite or virus in culture; assay type: cell-based; settings: Murine coronavirus, read-out: IC50 versus murine hepatitis virus (MHV)
[18] = system: Ebola virus/H.sapiens-tc/COD/1995/Kikwit-9510621 (EBOV/Kik); assay: microbe, parasite or virus in culture; assay type: cell-based; settings: Zaire ebolavirus, HeLa
in vivo [19] = settings: Hartley, guinea pig, po; for AUC(0-t): AUClast Mean; for Cmax: Cmax Mean; for half-life: T1/2
Vero 76 = settings: African green monkey
in vivo [20] = settings: both, Hartley, guinea pig, po
Tacaribe virus = assay: microbe, parasite or virus in culture; assay type: cell-based; settings: Mammarenavirus tacaribeense, Vero 76
in vitro [21] = settings: dog
Hartley guinea pigs = settings: guinea pig, in vivo
[22] = Hartley, guinea pig, in vivo, po, 30 mg/kg
Influenza A virus H1N1 = assay: microbe, parasite or virus in culture; assay type: cell-based; settings: H1N1, MDCK
MERS coronavirus = assay: microbe, parasite or virus in culture; assay type: cell-based; settings: Middle East respiratory syndrome-related coronavirus, Vero 76
Poliovirus 3 = assay: microbe, parasite or virus in culture; assay type: cell-based; settings: Enterovirus C, Vero 76
Yellow Fever virus = assay: microbe, parasite or virus in culture; assay type: cell-based; settings: Vero 76
[23] = Severe acute respiratory syndrome coronavirus 2, A549-ACE2, read-out: IC50 against SARS-CoV-2
[24] = read-out: IC50 against SARS-CoV-2

SMILES: CCN(CC)CCCC(C)Nc1c2ccc(Cl)cc2nc2ccc(OC)cc12 (centres unmarked) [Quinacrine]
- Clint [1]: 137.4
- Dextromethorphan: compound, t1/2 normalized to dextromethorphan control [1]: 1
- t1/2 [1]: 0.168 h
- IC50 [2]: 2.94 ± 0.76 µM
- CC50 (in vitro [3]): 15 µM
- Relative Peak Area/Abundance GPLM [4]: 20.7%
- Clint [5]: 110.0
- Dextromethorphan: compound, t1/2 normalized to dextromethorphan control [5]: 0.8
- t1/2 [5]: 0.21 h
- EC50 [6]: 4 µM
- IC50 (SARS-CoV-2; [23]): < 0.2 µM
- IC50 (SARS-CoV-2; [24]): ~0.122 µM
- EC50 (Ebola virus): > 12.3 µM
- CC50 (in vitro [7]): 6.2 µM
- IC50 [8]: 0.775 ± 0.283 µM
- IC50 [9]: 1.57 ± 0.17 µM
- IC50 [10]: 1.05 ± 0.26 µM
- Clint [11]: 81.3
- Dextromethorphan: compound, t1/2 normalized to dextromethorphan control [11]: 5.4
- t1/2 [11]: 0.285 h
- CC50 (HeLa cells): 8.62 ± 0.02 µM
- binding to SARS-CoV-2 Spike RBD (SARS-CoV-2 Spike RBD): did not demonstrate reproducible binding
- IC50 [12]: 0.97 µM
- Clint [13]: 50.5
- Dextromethorphan: compound, t1/2 normalized to dextromethorphan control [13]: 1.4
- t1/2 [13]: 0.458 h
- Relative Peak Area/Abundance HLM [14]: 32.3%
- IC50 [15]: 1.48 ± 0.65 µM
- EC50 (Chikungunya virus): 3.2 µM
- EC50 (EBOV Zaire): 0.35 µM
- Relative Peak Area/Abundance MLM [16]: 32.0%
- IC50 [17]: 2.3 µM
- IC50 [18]: 1.41 ± 0.25 µM

SMILES: CCN(CC)CCOc1ccc2c(c1)C(=O)c1cc(OCCN(CC)CC)ccc1-2 [Tilorone]
- AUC(0-t) (in vivo [19]; female, 30 mg/kg): 1140 ng·h/mL
- Cmax (in vivo [19]; female, 30 mg/kg): 246 ng/mL
- half-life (in vivo [19]; female, 30 mg/kg): 14.3 h
- Tmax (in vivo [19]; female, 30 mg/kg): 0.5 h
- AUC(0-t) (in vivo [19]; female, 100 mg/kg): 3330 ng·h/mL
- Cmax (in vivo [19]; female, 100 mg/kg): 384 ng/mL
- half-life (in vivo [19]; female, 100 mg/kg): 17.4 h
- Tmax (in vivo [19]; female, 100 mg/kg): 1 h
- AUC(0-t) (in vivo [19]; female, 200 mg/kg): 4680 ng·h/mL
- Cmax (in vivo [19]; female, 200 mg/kg): 448 ng/mL
- Tmax (in vivo [19]; female, 200 mg/kg): 1 h
- AUC(0-t) (in vivo [19]; male, 30 mg/kg): 1020 ng·h/mL
- Cmax (in vivo [19]; male, 30 mg/kg): 148 ng/mL
- half-life (in vivo [19]; male, 30 mg/kg): 15.6 h
- Tmax (in vivo [19]; male, 30 mg/kg): 1 h
- AUC(0-t) (in vivo [19]; male, 100 mg/kg): 2690 ng·h/mL
- Cmax (in vivo [19]; male, 100 mg/kg): 225 ng/mL
- Tmax (in vivo [19]; male, 100 mg/kg): 1 h
- AUC(0-t) (in vivo [19]; male, 200 mg/kg): 5750 ng·h/mL
- Cmax (in vivo [19]; male, 200 mg/kg): 355 ng/mL
- half-life (in vivo [19]; male, 200 mg/kg): 29 h
- Tmax (in vivo [19]; male, 200 mg/kg): 1 h
- Clint [1]: 14.7
- Dextromethorphan: compound, t1/2 normalized to dextromethorphan control [1]: 16.9
- t1/2 [1]: 1.57 h
- IC50 [2]: 4.51 ± 1.93 µM
- Relative Peak Area/Abundance GPLM [4]: 35.5%
- Clint [5]: 13.5
- Dextromethorphan: compound, t1/2 normalized to dextromethorphan control [5]: 6.3
- t1/2 [5]: 1.712 h
- EC50 [6]: 18 µM
- IC50 (SARS-CoV-2; [23]): < 0.2 µM
- IC50 (SARS-CoV-2; [24]): ~0.18 µM and 0.18 µM
- EC50 (Ebola virus): > 11 µM
- CC50 (Vero 76): 32 µM
- CC50 (in vitro [7]): 6.5 µM
- IC50 [8]: 1.94 ± 0.304 µM
- MTD (in vivo [20]): 30 mg/kg
- EC50 (Tacaribe virus): 29 µM
- IC50 [9]: 2.05 ± 0.28 µM
- IC50 [10]: 1.14 ± 0.38 µM
- Clint [11]: 113.7
- Dextromethorphan: compound, t1/2 normalized to dextromethorphan control [11]: 3.9
- t1/2 [11]: 0.203 h
- CC50 (in vitro [21]): 19 µM
- CC50 (HeLa cells): 18 ± 3.04 µM
- Kd (SARS-CoV-2 Spike RBD; pH5.2): 0.631 µM
- Kd (SARS-CoV-2 Spike RBD; pH 7.4): 0.339 µM
- IC50 [12]: 5 µM
- Clint [13]: 10.9
- Dextromethorphan: compound, t1/2 normalized to dextromethorphan control [13]: 6.5
- t1/2 [13]: 2.118 h
- Relative Peak Area/Abundance HLM [14]: 54.9%
- tolerability (Hartley guinea pigs): relatively well tolerated
- mortality and morbidity (Hartley guinea pigs; po, 100 mg/kg): significant mortality and morbidity
- IC50 [15]: 1.21 ± 1.07 µM
- EC50 (Chikungunya virus): 4.2 µM
- AUClast Mean ([22]; female): 1340 ng·h/mL
- AUClast Mean ([22]; male): 1230 ng·h/mL
- T1/2 ([22]; male): 13.3 h
- EC50 (EBOV Zaire): 0.23 µM
- EC50 (Influenza A virus H1N1): > 19 µM
- EC50 (MERS coronavirus): 3.7 µM
- EC50 (Poliovirus 3): > 25 µM
- Relative Peak Area/Abundance MLM [16]: 62.9%
- EC50 (Yellow Fever virus): > 12 µM
- IC50 [17]: ~20 µM
- IC50 [18]: 1.48 ± 0.47 µM
